Measurements as given in patent US12527862B2, “Bactericidal/permeability increasing protein for use in a method of immunization, preferably as an adjuvant in a method of vaccination” (UNIVERSITÄT REGENSBURG, priority 2018, dated 2026).

Experiments:
[1] = tested on: BMDCs; test: Cytokine protein secretion by BMDCs (Luminex); assay type: cell-based, C57BL/6J mice; settings: Zymd 5 μg/ml, bLP 10 nM; Luminex, n>7, 4h (FIG. 3)
Procedure: All methods mentioned in this example were carried out as described in the preceding examples. Cells were stimulated with Zymosan depleted (Zymd, 5 μg/ml) from Invivogen (San Diego, CA, USA) or (R)-Pam3CSK4 (bLP, 10 nM) from EMC Microcollections GmbH (Tübingen, Germany). Protein secretion analysis was performed using the supernatants.
To quantify the interleukin and chemokine protein-level after stimulation with huBPI, Zymd, and (R)-Pam CSK4, a multiplex-system was used and determined by using the Luminex® technology (Austin, TX, USA). The cytokines were captured with anti-mouse capture-antibodies and detected by biotinylated antibodies specific for the respective protein (Table 3). Protein concentrations were calculated using a reconstituted standard curve of the analyzed proteins (SM039, #LMC4031, Lot #1438354; Thermo Fisher Scientific; Standard Mix 1a, #EPX010-20603-901, Lot #111709101, eBioscience).

[2] = target: BPI; test: MicroScale Thermophoresis (MST) binding of ligands to BPI; set-up: species or system human; settings: MST, 0.196-6,436 nM Pam3CSK4 (FIG. 5A)
Procedure: (§1) BPIN (A) and rBPI were labeled with NT647 in PBS pH 7.4 (Monolith NT™ Protein Labeling Kit RED-NHS, NanoTemper Technologies, Munich, Germany). Concentration of labeled protein was determined using the NanoDrop (ThermoScientific, Wilmington, NC, USA) and Bradford assay (Promega, Mannheim, Germany). MST binding experiments were carried out with 5 nM labeled protein in binding buffer (10 mM HEPES pH 7.4, 150 mM NaCl, 0.1% Tween) with 0.196-6,436 nM of Pam3CSK4 (bLP), or 0.61-20,000 nM of LTA SPΔlgt (LTA), or >0.61-20,000 nM WTA SPΔlgt (WTA) at 20%-40% MST power, 20% LED power in premium capillaries on a Monolith NT.115 pico device at 25° C. (NanoTemper Technologies, Munich, Germany). Pam3CSK4, (bLP) was obtained from EMC Microcollections GmbH (Tübingen, Germany), LTA and WTA were prepared as published previously. MST timetraces were recorded, and the temperature jump and thermophoresis or thermophoresis was analyzed. Binding graphs of each independent experiment were normalized to the fraction bound.
(§2) MST was performed as described for example 5. PiLAM and PiLM were ordered from Invivogen (San Diego, CA, USA). BPI binding assays were performed by incubating Streptavidin-coated 96-well plates (Nunc™ Immobilizer™ Streptavidin F96 clear, Thermo Fisher Scientific, Waltham, MA, USA) with LPS biotin (2 μg/ml) in PBS overnight at 23° C. with gentle agitation. After washing with assay buffer (150 mM NaCl, 50 mM HEPES, Sigma Aldrich, Taufkirchen, Germany) containing 0.01% Casein, plates were blocked with 10 g/l BSA (Sigma Aldrich, Taufkirchen, Germany) at 37° C. and washed again. Thereafter, ligands were preincubated with 20 nM BPI in assay buffer containing 1 g/l BSA for 30 min and loaded onto the plates. Bound BPI was detected by murine anti-human BPI monoclonal antibody (Cat.-No. HM2042, Hycult Biotech, Uden, Netherlands) and HRP-conjugated rabbit anti-mouse IgG (Cat.-No. 315-035-048, Dianova, Hamburg, Germany). […] After addition of 1 N HCl, absorbance was measured at 450 nm. Absorbance indicates binding, the higher the absorbance the higher the binding of BPI to the coated well. […]

[3] = target: T1, BPI (Homo sapiens, UniProt P17213); test: as above; settings: 5 nM labeled protein, 25° C. (FIGS. 5A, 5C, 8A, 8B)
T1 construct: aa32-487 of the huBPI respectively aa28-483 of muBPI; HA signal peptide (N); made in house; host or cells: HEK293T
T1 sequence (P17213 32-487): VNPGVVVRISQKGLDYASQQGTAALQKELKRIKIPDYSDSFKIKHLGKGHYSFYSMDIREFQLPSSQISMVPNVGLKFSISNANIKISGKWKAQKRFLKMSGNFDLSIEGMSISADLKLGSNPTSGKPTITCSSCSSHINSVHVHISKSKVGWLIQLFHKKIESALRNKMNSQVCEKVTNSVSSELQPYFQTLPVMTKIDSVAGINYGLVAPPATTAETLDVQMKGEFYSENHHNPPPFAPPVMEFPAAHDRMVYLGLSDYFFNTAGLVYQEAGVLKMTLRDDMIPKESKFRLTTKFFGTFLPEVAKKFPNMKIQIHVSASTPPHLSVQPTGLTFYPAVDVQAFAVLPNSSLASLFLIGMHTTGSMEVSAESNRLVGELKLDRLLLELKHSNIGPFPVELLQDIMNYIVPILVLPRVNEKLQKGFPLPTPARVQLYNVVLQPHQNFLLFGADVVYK
Procedure: as §1, §2

[4] = target: T1, BPI; test: BPI binding assay on Streptavidin-coated plates (biotinylated LPS or ODN 1826), direct and competitive
Procedure: FIG. 7 depicts the binding of BPI to TLR ligands. […] Competition of binding was assessed for different variants of CpG ODNs ([…]) and the TLR3 agonist Poly(I:C) in ODN 1826 coated plates.
Streptavidin-coated plates were incubated with biotinylated LPS (n=3). Competition of binding was assessed for lipoarabinomannan as exemplified for phosphatidyl-inositol lipoarabinomannan (PiLAM).
MST was performed as described for example 5. PiLAM and PiLM were ordered from Invivogen (San Diego, CA, USA). BPI binding assays were performed by incubating Streptavidin-coated 96-well plates (Nunc™ Immobilizer™ Streptavidin F96 clear, Thermo Fisher Scientific, Waltham, MA, USA) with LPS biotin (2 μg/ml) in PBS overnight at 23° C. with gentle agitation. After washing with assay buffer (150 mM NaCl, 50 mM HEPES, Sigma Aldrich, Taufkirchen, Germany) containing 0.01% Casein, plates were blocked with 10 g/l BSA (Sigma Aldrich, Taufkirchen, Germany) at 37° C. and washed again. Thereafter, ligands were preincubated with 20 nM BPI in assay buffer containing 1 g/l BSA for 30 min and loaded onto the plates. Bound BPI was detected by murine anti-human BPI monoclonal antibody (Cat.-No. HM2042, Hycult Biotech, Uden, Netherlands) and HRP-conjugated rabbit anti-mouse IgG (Cat.-No. 315-035-048, Dianova, Hamburg, Germany). TMB (BD OptEIA™ TMB Substrate Reagent Set, BD Biosciences, Heidelberg, Germany) was used as a substrate for peroxidase. After addition of 1 N HCl, absorbance was measured at 450 nm. Absorbance indicates binding, the higher the absorbance the higher the binding of BPI to the coated well. Preincubation with a BPI ligand inhibits binding in a concentration-dependent manner.

[5] = tested on: bone-marrow derived dendritic cells; test: Microarray gene expression analysis in BMDCs; assay type: cell-based, C57BL/6J mice; settings: 200 nM huBPI or muBPI, 4 h, microarray (FIG. 2A)
Procedure: All methods mentioned in this example were carried out as described in Example 1. BMDCs were seeded into a tissue-culture-treated 96-well plate in VLE-RPMI 1640 media (10% FCS, 10% Penicillin-Streptomycin, 50 μM β-Mercaptoethanol) and stimulated with 200 nM huBPI or muBPI. 4 h after stimulation, gene expression analysis was performed by microarray analysis (Affymetrix Mouse Gene 2.0 ST, FIGS. 2A and 2B).

**Q.** How did the “stimulatory effect on the expression of IL-6 (IL-6 level), BPI vs Zymd vs bLP” value [1] turn out when (R)-Pam3CSK4 [bLP] was run?
**A.** Its value is “similar”.

**Q.** What about the “Affinity of BPI to bLP” value [2] of the same molecule?
**A.** The value was “within a nanomolar range”.

**Q.** And the “binding to BPI (MST)” value [3]?
**A.** Its value is “shown to bind to bLPs”.

**Q.** Which “binding of BPI to plate-bound biotinylated ligand” value ([4]; Streptavidin-coated plates, absorbance 450 nm, n=4 (FIG. 7A)) does the source give for ODN 1826 here?
**A.** Its value is “Binding of BPI to both LPS and CpG ODN was observed”.

**Q.** Which “competition of BPI binding in biotinylated LPS coated plates” value ([4]; LPS biotin 2 μg/ml, 20 nM BPI, n=3 (FIG. 8C)) does the source give for “phosphatidyl-inositol lipoarabinomannan [PiLAM]” here?
**A.** Its value is “binding is conserved”.

**Q.** With phosphatidyl-inositol lipomannan [PiLM] as the molecule, how does the “binding to BPI (MST)” value [3] read?
**A.** The value was “Binding of phosphatidyl-inositol lipomannan (PiLM) to BPI is shown”.

**Q.** For “polyinosinic: polycytidylic acid [Poly(I:C)]”, which “competition of BPI binding in ODN 1826 coated plates” value ([4]; biotinylated ODN 1826, n=3 (FIG. 7B)) is on record?
**A.** Its value is “competitive binding was present”.

B1: murine BPI: recombinant murine BPI, aa28-483 of muBPI, expressed in HEK293T cells (protein, listed as Mus musculus)
chain: TDPGFVAMISQKGLDFACQQGVVELQKELQAISVPDFSGVFKIKHLGKGSYEFYSMAVDGFHIPNPKIEMLPSDGLRVFIKDASIKINGKWMSRKNFLKAGGNFELSIQGVSISTDLILGSDSSGHITTICSNCDSHIDSVHIKISGSMLGWLIRLFHRKIETSLKNIIYKKICKIVRDSVSSKLQPYLKTLSVITRVDDVTSVDYSLLAPLTTTNQFLEGQLKGEFFWRGHRDPLPIHPPVMRFVPNGAYMVCMGISDYFFNTEVLAYQQSGTLKMTLGGQLLSNNGRFQLNTDFLRTFLPKVAKMFPSMGVQLLISAPVPVHLSIQPSGLSFNPKLETQAFVVLPNASLVPLFVLGMKTNASLEVDAEENRLVGEMKLGSRWLLELKESKFGPFKVEYLEDVINYLVSTLVLPKINERLRRGFPLPLPAGIRFSHFTFYPYQNFLLLEADLHLI
**Q.** B1 was tested. Which “immunostimulatory effect on BMDCs (gene expression)” value [5] did it give?
**A.** Its value is “shows an immunostimulatory effect on BMDCs”.
